Source: patent publication US8871753B2, “Macrocyclic compounds and their use as kinase inhibitors” (Incyte Corporation, priority 2008, dated 2014)

Legend:
Format in all cases: biochemical
[1] = biological target: T1, human JAK3 (a.a. 781-1124) (Homo sapiens, UniProt P52333); assay: In vitro JAK kinase assay (HTRF, phosphorylation of a biotinylated peptide), JAK3; conditions: Table D1
T1 construct: JAK3 (a.a. 781-1124); His tag (N); made in house; host or cells: insect cells (baculovirus)
Summary of the method: (§1)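 Kinase reactions ran at room temperature for 1 h with ATP matched per isoform (JAK1 90 μM, JAK2 30 μM, JAK3 3 μM). After an EDTA stop, the phosphorylated biotin-peptide was read by HTRF using Eu-Py20 and SA-APC after 40 min binding.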

[2] = biological target: T2, human JAK2 (a.a. 828-1132) (Homo sapiens, UniProt O60674); assay: In vitro JAK kinase assay (HTRF, phosphorylation of a biotinylated peptide), JAK2; conditions: Table D1
T2 construct: JAK2 (a.a. 828-1132); His tag (N); made in house; host or cells: insect cells (baculovirus)
Summary of the method: as §1

TYK2 = TYK2 (Homo sapiens, UniProt P29597); assay: TYK2 kinase inhibition (Table A1); conditions: Table D1
[3] = biological target: T3, human JAK1 (a.a. 837-1142) (Homo sapiens, UniProt P23458); assay: In vitro JAK kinase assay (HTRF, phosphorylation of a biotinylated peptide), JAK1; conditions: Table D1; read-out: JAK1 IC50
T3 construct: human JAK1 (a.a. 837-1142); His tag (N); made in house; host or cells: insect cells (baculovirus)
Summary of the method: as §1

T3 sequence (P23458 849-1154): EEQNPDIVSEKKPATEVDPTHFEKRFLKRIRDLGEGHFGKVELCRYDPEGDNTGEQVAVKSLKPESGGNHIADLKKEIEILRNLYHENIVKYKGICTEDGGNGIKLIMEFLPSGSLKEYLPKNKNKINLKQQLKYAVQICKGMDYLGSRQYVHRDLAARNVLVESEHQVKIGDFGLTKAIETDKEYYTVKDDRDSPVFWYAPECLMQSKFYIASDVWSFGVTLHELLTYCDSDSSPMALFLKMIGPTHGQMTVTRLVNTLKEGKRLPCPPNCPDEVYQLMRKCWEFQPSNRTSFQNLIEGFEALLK
TYK2, sequence (P29597 whole entry): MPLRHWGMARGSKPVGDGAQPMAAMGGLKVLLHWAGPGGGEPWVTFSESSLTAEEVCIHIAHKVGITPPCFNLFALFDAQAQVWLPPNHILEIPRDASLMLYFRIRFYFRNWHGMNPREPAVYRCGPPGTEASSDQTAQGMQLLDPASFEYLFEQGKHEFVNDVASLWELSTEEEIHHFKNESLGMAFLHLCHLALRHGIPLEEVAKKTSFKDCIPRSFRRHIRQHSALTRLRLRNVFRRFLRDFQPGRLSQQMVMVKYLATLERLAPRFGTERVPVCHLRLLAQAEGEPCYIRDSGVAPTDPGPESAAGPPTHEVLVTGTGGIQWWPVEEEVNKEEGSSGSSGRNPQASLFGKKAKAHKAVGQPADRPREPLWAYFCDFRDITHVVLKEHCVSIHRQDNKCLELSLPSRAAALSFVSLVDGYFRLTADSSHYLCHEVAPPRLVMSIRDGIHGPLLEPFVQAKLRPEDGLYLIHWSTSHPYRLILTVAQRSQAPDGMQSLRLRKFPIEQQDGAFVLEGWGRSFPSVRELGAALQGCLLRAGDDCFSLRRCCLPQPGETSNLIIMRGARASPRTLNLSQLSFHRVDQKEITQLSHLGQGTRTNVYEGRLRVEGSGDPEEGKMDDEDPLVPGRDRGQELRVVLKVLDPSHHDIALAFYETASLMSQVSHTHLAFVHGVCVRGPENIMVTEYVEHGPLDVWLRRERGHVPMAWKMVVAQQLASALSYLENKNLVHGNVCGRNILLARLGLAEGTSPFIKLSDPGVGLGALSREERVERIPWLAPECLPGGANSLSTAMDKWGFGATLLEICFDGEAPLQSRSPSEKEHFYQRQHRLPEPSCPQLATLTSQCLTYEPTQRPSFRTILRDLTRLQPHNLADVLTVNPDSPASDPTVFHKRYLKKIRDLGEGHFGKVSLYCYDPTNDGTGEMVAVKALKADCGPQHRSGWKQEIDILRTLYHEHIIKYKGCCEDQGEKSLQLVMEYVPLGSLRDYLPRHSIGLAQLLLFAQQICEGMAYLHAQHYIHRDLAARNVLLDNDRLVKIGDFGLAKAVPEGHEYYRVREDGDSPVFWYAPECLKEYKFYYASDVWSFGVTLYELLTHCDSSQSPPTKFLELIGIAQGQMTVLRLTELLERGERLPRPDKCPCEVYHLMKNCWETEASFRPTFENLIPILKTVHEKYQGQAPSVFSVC
T2 sequence (O60674 828-1132): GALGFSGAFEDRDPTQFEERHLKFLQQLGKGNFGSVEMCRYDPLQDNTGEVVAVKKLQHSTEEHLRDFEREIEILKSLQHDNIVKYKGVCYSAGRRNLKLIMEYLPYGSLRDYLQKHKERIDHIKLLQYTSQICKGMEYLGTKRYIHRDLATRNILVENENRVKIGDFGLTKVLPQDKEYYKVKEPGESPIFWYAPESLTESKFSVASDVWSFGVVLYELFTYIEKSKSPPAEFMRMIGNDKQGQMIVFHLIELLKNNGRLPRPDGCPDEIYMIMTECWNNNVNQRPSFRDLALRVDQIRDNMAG
T1 sequence (P52333 781-1124): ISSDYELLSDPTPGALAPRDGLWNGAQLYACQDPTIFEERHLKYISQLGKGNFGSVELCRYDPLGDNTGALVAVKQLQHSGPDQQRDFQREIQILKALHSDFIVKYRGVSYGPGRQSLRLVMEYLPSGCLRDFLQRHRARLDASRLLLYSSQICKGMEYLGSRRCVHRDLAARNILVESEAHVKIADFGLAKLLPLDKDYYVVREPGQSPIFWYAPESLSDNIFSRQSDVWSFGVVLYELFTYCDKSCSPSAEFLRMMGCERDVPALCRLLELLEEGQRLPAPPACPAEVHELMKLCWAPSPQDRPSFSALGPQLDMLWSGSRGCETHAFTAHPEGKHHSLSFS

SMILES	IC50 [1] [nM]	IC50 [2] [nM]	IC50 (TYK2) [nM]	IC50 [3] [nM]
O=C(Nc1ccccc1)N1CCC(COc2ccc3cc2CCc2cncc(c2)Nc2ncc(Cl)c(n2)N3)CC1 [Example D228, 4-({[6-Chloro-2,4,8,18,22-pentaazatetracyclo[14.3.1.1(3,7).1(9,13)]docosa-1(20),3(22),4,6,9(21),10,12,16,18-nonaen-12-yl]oxy}methyl)-N-phenylpiperidine-1-carboxamide bis(trifluoroacetate)]	> 400	371	> 400	> 400
O=C(COc1ccc2cc1CCc1cncc(c1)Nc1ncc(Cl)c(n1)N2)N1CCNCC1 [Example D229, 6-Chloro-12-(2-oxo-2-piperazin-1-ylethoxy)-2,4,8,18,22-pentaazatetracyclo[14.3.1.1(3,7).1(9,13)]docosa-1(20),3(22),4,6,9(21),10,12,16,18-nonaene tris(trifluoroacetate)]	> 400	235	> 400	153
O=C(COc1ccc2cc1CCc1cncc(c1)Nc1ncc(Cl)c(n1)N2)N1CCN(c2nccs2)CC1 [Example D230, 6-Chloro-12-{2-oxo-2-[4-(1,3-thiazol-2-yl)piperazin-1-yl]ethoxy}-2,4,8,18,22-pentaazatetracyclo[14.3.1.1(3,7).1(9,13)]docosa-1(20),3(22),4,6,9(21),10,12,16,18-nonaene tris(trifluoroacetate)]	> 400	47	> 400	25
O=C(COc1ccc2cc1CCc1cncc(c1)Nc1ncc(Cl)c(n1)N2)N1CCN(c2ccccn2)CC1 [Example D231, 6-Chloro-12-[2-oxo-2-(4-pyridin-2-ylpiperazin-1-yl)ethoxy]-2,4,8,18,22-pentaazatetracyclo[14.3.1.1(3,7).1(9,13)]docosa-1(20),3(22),4,6,9(21),10,12,16,18-nonaene tris(trifluoroacetate)]	> 400	217	> 400	52
O=C(COc1ccc2cc1CCc1cncc(c1)Nc1ncc(Cl)c(n1)N2)N1CCN(c2cnccn2)CC1 [Example D232, 6-Chloro-12-[2-oxo-2-(4-pyrazin-2-ylpiperazin-1-yl)ethoxy]-2,4,8,18,22-pentaazatetracyclo[14.3.1.1(3,7).1(9,13)]docosa-1(20),3(22),4,6,9(21),10,12,16,18-nonaene tris(trifluoroacetate)]	> 400	160	> 400	32
O=C(COc1ccc2cc1CCc1cncc(c1)Nc1ncc(Cl)c(n1)N2)N1CCN(c2ncccn2)CC1 [Example D233, 6-Chloro-12-[2-oxo-2-(4-pyrimidin-2-ylpiperazin-1-yl)ethoxy]-2,4,8,18,22-pentaazatetracyclo[14.3.1.1(3,7).1(9,13)]docosa-1(20),3(22),4,6,9(21),10,12,16,18-nonaene tris(trifluoroacetate)]	> 400	> 400	> 400	100
O=C(COc1ccc2cc1CCc1cncc(c1)Nc1ncc(Cl)c(n1)N2)N1CCN(c2ccccc2)CC1 [Example D234, 6-Chloro-12-[2-oxo-2-(4-phenylpiperazin-1-yl)ethoxy]-2,4,8,18,22-pentaazatetracyclo[14.3.1.1(3,7).1(9,13)]docosa-1(20),3(22),4,6,9(21),10,12,16,18-nonaene tris(trifluoroacetate)]	> 400	160	> 400	41
N#Cc1ccccc1N1CCN(C(=O)COc2ccc3cc2CCc2cncc(c2)Nc2ncc(Cl)c(n2)N3)CC1 [Example D235, 2-[4-({[6-Chloro-2,4,8,18,22-pentaazatetracyclo[14.3.1.1(3,7).1(9,13)]docosa-1(20),3(22),4,6,9(21),10,12,16,18-nonaen-12-yl]oxy}acetyl)piperazin-1-yl]benzonitrile tris(trifluoroacetate)]	> 400	> 400	> 400	64
N#Cc1ccc(N2CCN(C(=O)COc3ccc4cc3CCc3cncc(c3)Nc3ncc(Cl)c(n3)N4)CC2)cc1 [Example D236, 4-[4-({[6-Chloro-2,4,8,18,22-pentaazatetracyclo[14.3.1.1(3,7).1(9,13)]docosa-1(20),3(22),4,6,9(21),10,12,16,18-nonaen-12-yl]oxy}acetyl)piperazin-1-yl]benzonitrile tris(trifluoroacetate)]	> 400	288	> 400	90
Cc1ccnc(N2CCN(C(=O)COc3ccc4cc3CCc3cncc(c3)Nc3ncc(Cl)c(n3)N4)CC2)c1 [Example D237, 6-Chloro-12-{2-[4-(4-methylpyridin-2-yl)piperazin-1-yl]-2-oxoethoxy}-2,4,8,18,22-pentaazatetracyclo[14.3.1.1(3,7).1(9,13)]docosa-1(20),3(22),4,6,9(21),10,12,16,18-nonaene tris(trifluoroacetate)]	> 400	180	> 400	29
N#Cc1cccnc1N1CCN(C(=O)COc2ccc3cc2CCc2cncc(c2)Nc2ncc(Cl)c(n2)N3)CC1 [Example D238, 2-[4-({[6-Chloro-2,4,8,18,22-pentaazatetracyclo[14.3.1.1(3,7).1(9,13)]docosa-1(20),3(22),4,6,9(21),10,12,16,18-nonaen-12-yl]oxy}acetyl)piperazin-1-yl]nicotinonitrile tris(trifluoroacetate)]	> 400	> 400	> 400	41
N#Cc1ccc(N2CCN(C(=O)COc3ccc4cc3CCc3cncc(c3)Nc3ncc(Cl)c(n3)N4)CC2)nc1 [Example D239, 6-[4-({[6-Chloro-2,4,8,18,22-pentaazatetracyclo[14.3.1.1(3,7).1(9,13)]docosa-1(20),3(22),4,6,9(21),10,12,16,18-nonaen-12-yl]oxy}acetyl)piperazin-1-yl]nicotinonitrile tris(trifluoroacetate)]	> 400	208	> 400	101
O=C(COc1ccc2cc1CCc1cncc(c1)Nc1ncc(Cl)c(n1)N2)N1CCN(c2cccc(Cl)n2)CC1 [Example D240, 6-Chloro-12-{2-[4-(6-chloropyridin-2-yl)piperazin-1-yl]-2-oxoethoxy}-2,4,8,18,22-pentaazatetracyclo[14.3.1.1(3,7).1(9,13)]docosa-1(20),3(22),4,6,9(21),10,12,16,18-nonaene tris(trifluoroacetate)]	> 400	> 400	> 400	255
COc1ccccc1N1CCN(C(=O)COc2ccc3cc2CCc2cncc(c2)Nc2ncc(Cl)c(n2)N3)CC1 [Example D241, 6-Chloro-12-{2-[4-(2-methoxyphenyl)piperazin-1-yl]-2-oxoethoxy}-2,4,8,18,22-pentaazatetracyclo[14.3.1.1(3,7).1(9,13)]docosa-1(20),3(22),4,6,9(21),10,12,16,18-nonaene tris(trifluoroacetate)]	> 400	180	> 400	41
